# The source made the active and inactive calls. How the calls were made is not given here.
# Tested on: CCRIS mutagenicity, Ames/micronucleus/aberration tests
# Assay: CCRIS mutagenicity studies
# [1] = Test System: AMES SALMONELLA TYPHIMURIUM, Strain/Indicator: TA98, Metabolic Activation: NONE, Method: STANDARD PLATE
# [2] = Test System: AMES SALMONELLA TYPHIMURIUM, Strain/Indicator: TA98, Metabolic Activation: RAT, LIVER, S-9, AROCLOR 1254, Method: STANDARD PLATE
# [3] = Test System: AMES SALMONELLA TYPHIMURIUM, Strain/Indicator: TA100, Metabolic Activation: NONE, Method: STANDARD PLATE
# [4] = Test System: AMES SALMONELLA TYPHIMURIUM, Strain/Indicator: TA98, Metabolic Activation: NONE, Method: PREINCUBATION
# [5] = Test System: AMES SALMONELLA TYPHIMURIUM, Strain/Indicator: TA100, Metabolic Activation: NONE, Method: PREINCUBATION
# [6] = Test System: AMES SALMONELLA TYPHIMURIUM, Strain/Indicator: TA1535, Metabolic Activation: NONE, Method: PREINCUBATION
# [7] = Test System: AMES SALMONELLA TYPHIMURIUM, Strain/Indicator: TA1537, Metabolic Activation: NONE, Method: PREINCUBATION
smiles,measurement,setting,value
O=P(O)(OCC(Br)CBr)OCC(Br)CBr (configuration not stated),mutagenic call,"Test System: AMES SALMONELLA TYPHIMURIUM, Strain/Indicator: TA100, Metabolic Activation: RAT, LIVER, S-9, AROCLOR 1254, Method: STANDARD PLATE",active; positive
same,mutagenic call,"Test System: AMES SALMONELLA TYPHIMURIUM, Strain/Indicator: TA1535, Metabolic Activation: RAT, LIVER, S-9, AROCLOR 1254, Method: STANDARD PLATE",active; positive
ClCc1ccncc1,mutagenic call,"Test System: AMES SALMONELLA TYPHIMURIUM, Strain/Indicator: TA97, Metabolic Activation: NONE, Method: STANDARD PLATE",inactive; negative
same,mutagenic call,"Test System: AMES SALMONELLA TYPHIMURIUM, Strain/Indicator: TA97, Metabolic Activation: RAT, LIVER, S-9, AROCLOR 1254, Method: STANDARD PLATE",inactive; negative
same,mutagenic call,[1],inactive; negative
same,mutagenic call,[2],inactive; negative
same,mutagenic call,[3],inactive; negative
same,mutagenic call,"Test System: AMES SALMONELLA TYPHIMURIUM, Strain/Indicator: TA102, Metabolic Activation: NONE, Method: STANDARD PLATE",inactive; negative
same,mutagenic call,"Test System: AMES SALMONELLA TYPHIMURIUM, Strain/Indicator: TA102, Metabolic Activation: RAT, LIVER, S-9, AROCLOR 1254, Method: STANDARD PLATE",inactive; negative
Clc1nncc2ncccc12,mutagenic call,[4],inactive; negative
same,mutagenic call,"Test System: AMES SALMONELLA TYPHIMURIUM, Strain/Indicator: TA98, Metabolic Activation: RAT, LIVER, S-9, PCB, Method: PREINCUBATION",inactive; negative
same,mutagenic call,[5],inactive; negative
same,mutagenic call,"Test System: AMES SALMONELLA TYPHIMURIUM, Strain/Indicator: TA100, Metabolic Activation: RAT, LIVER, S-9, PCB, Method: PREINCUBATION",inactive; negative
O=C1OC[C@@H](Cc2cccc(O)c2)[C@@H]1Cc1cccc(O)c1,mutagenic call,"Test System: CHINESE HAMSTER V79 CELLS, Strain/Indicator: V79 CELLS (HPRT)/6-THIOGUANINE, Metabolic Activation: NONE, Method: SUSPENSION/PLATE",inactive; negative
same,mutagenic call,"Test System: CHINESE HAMSTER V-79, Strain/Indicator: V-79 (HPRT)/6-THIOGUANINE, Metabolic Activation: NONE",inactive; negative
BrCCCCBr,mutagenic call,"End Point: IN VITRO CHROMOSOMAL ABERRATIONS, Test System: CHL CELLS, Metabolic Activation: RAT, LIVER, S-9, SODIUM PHENOBARBITAL AND 5,6-BENZOFLAVONE",active; positive (structural changes); authors report equivocal results for ploidy chang
same,mutagenic call,[4],inactive; negative
same,mutagenic call,"Test System: AMES SALMONELLA TYPHIMURIUM, Strain/Indicator: TA98, Metabolic Activation: RAT LIVER S-9, PHENOBARBITAL AND BETA-NAPHTHOFLAVONE, Method: PREINCUBATION",inactive; negative
same,mutagenic call,[5],inactive; negative
same,mutagenic call,[6],active; positive
same,mutagenic call,"Test System: AMES SALMONELLA TYPHIMURIUM, Strain/Indicator: TA1535, Metabolic Activation: RAT LIVER S-9, PHENOBARBITAL AND BETA-NAPHTHOFLAVONE, Method: PREINCUBATION",active; positive
same,mutagenic call,[7],inactive; negative
same,mutagenic call,"Test System: AMES SALMONELLA TYPHIMURIUM, Strain/Indicator: TA1537, Metabolic Activation: RAT LIVER S-9, PHENOBARBITAL AND BETA-NAPHTHOFLAVONE, Method: PREINCUBATION",inactive; negative
same,mutagenic call,"Test System: E.COLI, Strain/Indicator: WP2UVRA, Metabolic Activation: NONE, Method: PREINCUBATION",active; positive
same,mutagenic call,"Test System: E.COLI, Strain/Indicator: WP2UVRA, Metabolic Activation: RAT LIVER S-9, PHENOBARBITAL AND BETA-NAPHTHOFLAVONE, Method: PREINCUBATION",active; positive
CCNC(=O)Nc1ccc(OCC(O)CNC(C)(C)C)c(C(C)=O)c1 (configuration not stated),mutagenic call,[4],inactive; negative
same,mutagenic call,"Test System: AMES SALMONELLA TYPHIMURIUM, Strain/Indicator: TA98, Metabolic Activation: RAT, LIVER, S-9, AROCLOR 1254 (10 OR 50 µL/PLATE), Method: PREINCUBATION",inactive; negative
same,mutagenic call,[5],inactive; negative
same,mutagenic call,"Test System: AMES SALMONELLA TYPHIMURIUM, Strain/Indicator: TA100, Metabolic Activation: RAT, LIVER, S-9, AROCLOR 1254 (10 OR 50 µL/PLATE), Method: PREINCUBATION",inactive; negative
same,mutagenic call,[6],inactive; negative
same,mutagenic call,"Test System: AMES SALMONELLA TYPHIMURIUM, Strain/Indicator: TA1535, Metabolic Activation: RAT, LIVER, S-9, AROCLOR 1254 (10 OR 50 µL/PLATE), Method: PREINCUBATION",inactive; negative
same,mutagenic call,[7],inactive; negative
same,mutagenic call,"Test System: AMES SALMONELLA TYPHIMURIUM, Strain/Indicator: TA1537, Metabolic Activation: RAT, LIVER, S-9, AROCLOR 1254 (10 OR 50 µL/PLATE), Method: PREINCUBATION",inactive; negative
same,mutagenic call,"Test System: E. COLI, Strain/Indicator: WP2 UVRA, Metabolic Activation: NONE, Method: PREINCUBATION",inactive; negative
same,mutagenic call,"Test System: E. COLI, Strain/Indicator: WP2 UVRA, Metabolic Activation: RAT, LIVER, S-9, AROCLOR 1254 (10 OR 50 µL/PLATE), Method: PREINCUBATION",inactive; negative
CCOC(=O)CC1OCCc2c1[nH]c1c(CC)c(O)ccc21 (configuration not stated),mutagenic call,[1],inactive; negative
same,mutagenic call,"Test System: AMES SALMONELLA TYPHIMURIUM, Strain/Indicator: TA98, Metabolic Activation: RAT, LIVER, S-9 (10 OR 50 µL/PLATE), Method: STANDARD PLATE",inactive; negative
same,mutagenic call,[3],inactive; negative
same,mutagenic call,"Test System: AMES SALMONELLA TYPHIMURIUM, Strain/Indicator: TA100, Metabolic Activation: RAT, LIVER, S-9 (10 OR 50 µL/PLATE), Method: STANDARD PLATE",inactive; negative
same,mutagenic call,"Test System: AMES SALMONELLA TYPHIMURIUM, Strain/Indicator: TA1535, Metabolic Activation: NONE, Method: STANDARD PLATE",active; positive
same,mutagenic call,"Test System: AMES SALMONELLA TYPHIMURIUM, Strain/Indicator: TA1535, Metabolic Activation: RAT, LIVER, S-9 (10 OR 50 µL/PLATE), Method: STANDARD PLATE",active; positive
same,mutagenic call,"Test System: AMES SALMONELLA TYPHIMURIUM, Strain/Indicator: TA1537, Metabolic Activation: NONE, Method: STANDARD PLATE",inactive; negative
same,mutagenic call,"Test System: AMES SALMONELLA TYPHIMURIUM, Strain/Indicator: TA1537, Metabolic Activation: RAT, LIVER, S-9 (10 OR 50 µL/PLATE), Method: STANDARD PLATE",inactive; negative
same,mutagenic call,"Test System: E. COLI, Strain/Indicator: WP2 UVRA, Metabolic Activation: NONE, Method: STANDARD PLATE",inactive; negative
same,mutagenic call,"Test System: E. COLI, Strain/Indicator: WP2 UVRA, Metabolic Activation: RAT, LIVER, S-9 (10 OR 50 µL/PLATE), Method: STANDARD PLATE",inactive; negative
Cc1cnc2c(ccc3c2nc(N)n3C)n1,mutagenic call,"Test System: AMES SALMONELLA TYPHIMURIUM, Strain/Indicator: TA98, Metabolic Activation: RAT, LIVER, S-9, AROCLOR 1254, Method: PREINCUBATION",active; positive
same,mutagenic call,[2],active; positive
